Here are results for 24 compounds from US20230399312A1, “SUBSTITUTED PYRIMIDINES AND METHODS OF USE” (THERAVANCE BIOPHARMA R&D IP, LLC, priority 2020, published 2023).

Assay [1] deals with T1, recombinant human ALK5 (TGF-βR1) protein (Homo sapiens, UniProt P36897).
T1 construct: purchased Life Technologies PR9075A
T1 sequence (P36897 34-503): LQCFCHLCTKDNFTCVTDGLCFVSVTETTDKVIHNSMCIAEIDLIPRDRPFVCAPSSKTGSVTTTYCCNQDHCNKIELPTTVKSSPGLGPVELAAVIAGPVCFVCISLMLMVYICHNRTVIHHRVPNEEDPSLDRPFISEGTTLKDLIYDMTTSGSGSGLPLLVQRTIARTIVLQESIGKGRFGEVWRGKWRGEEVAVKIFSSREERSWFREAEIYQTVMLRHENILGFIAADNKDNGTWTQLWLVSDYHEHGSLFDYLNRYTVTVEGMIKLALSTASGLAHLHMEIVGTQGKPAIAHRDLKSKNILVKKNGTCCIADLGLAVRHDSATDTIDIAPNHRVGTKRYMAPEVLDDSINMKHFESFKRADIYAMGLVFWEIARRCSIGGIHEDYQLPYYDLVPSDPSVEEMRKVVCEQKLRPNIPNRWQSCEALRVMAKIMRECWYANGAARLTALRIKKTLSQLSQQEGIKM
The experiment in a line: Biochemical ALK5 (TGF-βR1) assay to measure pKi (LANCE Ultra ULight kinase assay). The conditions noted are these: apparent pKi, converted from pIC50 by Cheng-Prusoff. An outline of the steps:
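Enzyme preincubated with compound for 60 min at room temperature, then reacted with ATP (125 μM as 5× stock) for 60 min at 37 °C. Stopped with EDTA plus Eu-anti-phospho-Topoisomerase 2-alpha (Thr1342) antibody and read by TR-FRET at 665 nm. pIC50 from a 4-parameter fit, converted to pKi by Cheng-Prusoff.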
(In general: TR-FRET usually uses a lanthanide donor and a delayed reading to cut background.)

Assay [2] concerns TGF-β-stimulated SMAD3 phosphorylation in BEAS-2B cells. The experiment in a line: Cellular ALK5 potency assay, inhibition of TGF-β stimulated pSMAD3 formation in BEAS-2B cells. The note with it: Homo sapiens, pSMAD3, TGF-β 10 ng/mL, read-out: BEAS2B pIC50 (converted). The assay is classed as cell-based. An outline of the steps: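 Cells were seeded overnight, rinsed into HEPES/BSA-supplemented HBSS, and dosed with serially diluted compound for 1 h at 37 °C, 5% CO2. TGF-β stimulation (10 ng/mL final) followed for 30 min, then lysis and AlphaLISA pSMAD3 measurement; potency reported as pIC50.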

Turning to `Cc1cccc(-c2nccc(Nc3ccnc(Nc4csc(C(=O)OC[C@@H]5CCC[C@H](N)C5)c4)n3)n2)n1` [Compound 621, [(1R,3S)-3-aminocyclohexyl]methyl 4-[[4-[[2-(6-methyl-2-pyridyl)pyrimidin-4-yl]amino]pyrimidin-2-yl]amino]thiophene-2-carboxylate], the Ki in assay [1] is 0.0398 to 0.316 nM. Further, the IC50 in assay [2] is 25.1 to 158 nM.

On to `Cc1cccc(-c2nccc(Nc3ccnc(Nc4csc(C(=O)N[C@@H]5CCNC5)c4)n3)n2)n1` [Compound 336, 4-[[4-[[2-(6-methyl-2-pyridyl)pyrimidin-4-yl]amino]pyrimidin-2-yl]amino]-N-[(3R)-pyrrolidin-3-yl]thiophene-2-carboxamide], for which the Ki in assay [1] was at most 0.0316 nM. Also, the IC50 in assay [2] is 25.1 to 158 nM.

As to `Cc1cccc(-c2nccc(Nc3ccnc(Nc4ccc(N5CCN(C)CC5)cn4)n3)n2)n1` [Compound 267, N2-[5-(4-methylpiperazin-1-yl)-2-pyridyl]-N4-[2-(6-methyl-2-pyridyl)pyrimidin-4-yl]pyrimidine-2,4-diamine], the Ki in assay [1] was 0.398 to 3.16 nM. Besides, in assay [2], the IC50 is 25.1 to 158 nM.

Turning to `Cc1cccc(-c2nccc(Nc3ccnc(Nc4cc(NC(=O)C5CCNCC5)c5c(c4)OCCO5)n3)n2)n1` [Compound 419, N-[7-[[4-[[2-(6-methyl-2-pyridyl)pyrimidin-4-yl]amino]pyrimidin-2-yl]amino]-2,3-dihydro-1,4-benzodioxin-5-yl]piperidine-4-carboxamide], the Ki in assay [1] is 0.0398 to 0.316 nM. Moreover, the IC50 in assay [2] is 25.1 to 158 nM.

For the compound `Cc1cccc(-c2nccc(Nc3ccnc(Nc4ccc(CN5CCC(C(=O)OC6CNC6)CC5)cc4)n3)n2)n1` [Compound 17, azetidin-3-yl 1-[[4-[[4-[[2-(6-methyl-2-pyridyl)pyrimidin-4-yl]amino]pyrimidin-2-yl]amino]phenyl]methyl] piperidine-4-carboxylate], the Ki in assay [1] is 0.0398 to 0.316 nM. In addition, the IC50 in assay [2] was 25.1 to 158 nM.

Turning to `COC(=O)c1ccc(Nc2nccc(Nc3ccnc(-c4cccc(C)n4)n3)n2)cc1` [Compound 62, methyl 4-[[4-[[2-(6-methyl-2-pyridyl)pyrimidin-4-yl]amino]pyrimidin-2-yl]amino]benzoate], in assay [1], the Ki was 0.398 to 3.16 nM. Besides, the IC50 in assay [2] was 25.1 to 158 nM.

`Cc1cccc(-c2nccc(Nc3ccnc(Nc4ccc(N5CCN[C@@H](CO)C5)cc4)n3)n2)n1` [Compound 403, (R)-(4-(4-((4-((2-(6-methylpyridin-2-yl)pyrimidin-4-yl)amino)pyrimidin-2-yl)amino)phenyl)piperazin-2-yl)methanol]: in assay [1], the Ki was 0.0398 to 0.316 nM. Further, the IC50 in assay [2] was 25.1 to 158 nM.

Consider `Cc1cccc(-c2nccc(Nc3ccnc(Nc4cnn(CCN5CCOCC5)c4)n3)n2)n1` [Compound 84, N4-(2-(6-methylpyridin-2-yl)pyrimidin-4-yl)-N2-(1-(2-morpholinoethyl)-1H-pyrazol-4-yl)pyrimidine-2,4-diamine], for which, in assay [1], the Ki was 0.0398 to 0.316 nM. Besides, in assay [2], the IC50 is 25.1 to 158 nM.

Consider `Cc1cccc(-c2nccc(Nc3ccnc(Nc4ccc(N5CCOCC5)cc4)n3)n2)n1` [Compound 475, N4-(2-(6-methylpyridin-2-yl)pyrimidin-4-yl)-N2-(4-morpholinophenyl)pyrimidine-2,4-diamine], for which the Ki in assay [1] is 0.0398 to 0.316 nM. Further, in assay [2], the IC50 was at most 20 nM.

Take `Cc1cccc(-c2nccc(Nc3ccnc(Nc4nc(CN5CC(C(=O)O)C5)cs4)n3)n2)n1` [Compound 629, 1-[[2-[[4-[[2-(6-methyl-2-pyridyl)pyrimidin-4-yl]amino]pyrimidin-2-yl]amino]thiazol-4-yl]methyl]azetidine-3-carboxylic acid]: in assay [1], the Ki is 0.0398 to 0.316 nM. Also, the IC50 in assay [2] is 1580 to 10000 nM.

As for `Cc1cccc(-c2nccc(Nc3ccnc(Nc4ccc(NC(=O)C5(CO)CNC5)cc4)n3)n2)n1` [Compound 209, 3-(hydroxymethyl)-N-(4-((4-((2-(6-methylpyridin-2-yl)pyrimidin-4-yl)amino)pyrimidin-2-yl)amino)phenyl)azetidine-3-carboxamide], the Ki in assay [1] was 0.0398 to 0.316 nM. In addition, the IC50 in assay [2] is at most 20 nM.

As for `Cc1cccc(-c2nc(Nc3ccnc(Nc4ccc(CC(=O)O)cc4)n3)c3cccn3n2)n1` [Compound 1018, 2-[4-[[4-[[2-(6-methyl-2-pyridyl)pyrrolo[2,1-f][1,2,4]triazin-4-yl]amino]pyrimidin-2-yl]amino]phenyl]acetic acid], the Ki in assay [1] was 0.0398 to 0.316 nM. Moreover, the IC50 in assay [2] was 25.1 to 158 nM.

Regarding `Cc1cccc(-c2nccc(Nc3ccnc(Nc4ccc(-c5cnn(CCO)c5)cc4)n3)n2)n1` [Compound 36, 2-[4-[4-[[4-[[2-(6-methyl-2-pyridyl)pyrimidin-4-yl]amino]pyrimidin-2-yl]amino]phenyl]pyrazol-1-yl]ethanol], the Ki in assay [1] is 0.398 to 3.16 nM. The IC50 in assay [2] was 25.1 to 158 nM.

For the compound `Cc1cccc(-c2nccc(Nc3ccnc(Nc4ccc(N5CCN(CC6CCC(=O)O6)CC5)cc4)n3)n2)n1` (stereo not drawn) [Compound 235, 5-[[4-[4-[[4-[[2-(6-methyl-2-pyridyl)pyrimidin-4-yl]amino]pyrimidin-2-yl]amino]phenyl]piperazin-1-yl]methyl]tetrahydrofuran-2-one], the Ki in assay [1] is 0.0398 to 0.316 nM. In addition, in assay [2], the IC50 was at most 20 nM.

With `CNC(=O)[C@@H]1CN(c2ccc(Nc3nccc(Nc4ccnc(-c5cccc(C)n5)n4)n3)cc2)CCN1` [Compound 367, (2S)-N-methyl-4-[4-[[4-[[2-(6-methyl-2-pyridyl)pyrimidin-4-yl]amino]pyrimidin-2-yl]amino]phenyl]piperazine-2-carboxamide], in assay [1], the Ki was 0.0398 to 0.316 nM. In addition, the IC50 in assay [2] was 25.1 to 158 nM.

In the case of `Cc1cccc(-c2nc(Nc3ccnc(Nc4ccc(NC(=O)CC5CNC5)cc4)n3)c3cccn3n2)n1` [Compound 1029, 2-(azetidin-3-yl)-N-[4-[[4-[[2-(6-methyl-2-pyridyl)pyrrolo[2,1-f][1,2,4]triazin-4-yl]amino]pyrimidin-2-yl]amino]phenyl]acetamide], the Ki in assay [1] was 0.0398 to 0.316 nM. Moreover, the IC50 in assay [2] was 25.1 to 158 nM.

Turning to `Cc1cccc(-c2nccc(Nc3ccnc(Nc4cccc(CN5CC6CCC(C5)N6)c4)n3)n2)n1` [Compound 332, N2-[3-(3,8-diazabicyclo[3.2.1]octan-3-ylmethyl)phenyl]-N4-[2-(6-methyl-2-pyridyl)pyrimidin-4-yl]pyrimidine-2,4-diamine], in assay [1], the Ki was 0.0398 to 0.316 nM. Moreover, the IC50 in assay [2] is 25.1 to 158 nM.

For the compound `Cc1cccc(-c2nccc(Nc3ccnc(Nc4ccc(CO)cc4)n3)n2)n1` [Compound 388, [4-[[4-[[2-(6-methyl-2-pyridyl)pyrimidin-4-yl]amino]pyrimidin-2-yl]amino]phenyl]methanol], the Ki in assay [1] is 0.398 to 3.16 nM. In addition, the IC50 in assay [2] was at most 20 nM.

As to `Cc1cccc(-c2nccc(Nc3ccnc(Nc4ccc(NC(=O)C5(O)CCNC5)cc4)n3)n2)n1` (stereo not drawn) [Compound 58, 3-hydroxy-N-[4-[[4-[[2-(6-methyl-2-pyridyl)pyrimidin-4-yl]amino]pyrimidin-2-yl]amino]phenyl]pyrrolidine-3-carboxamide], the Ki in assay [1] was 0.0398 to 0.316 nM. Besides, the IC50 in assay [2] was at most 20 nM.

As for `Cc1cccc(-c2nccc(Nc3ccnc(Nc4ccc(C)c(CN5CCSCC5)c4)n3)n2)n1` [Compound 361, N4-[2-(6-methyl-2-pyridyl)pyrimidin-4-yl]-N2-[4-methyl-3-(thiomorpholinomethyl)phenyl] pyrimidine-2,4-diamine], in assay [1], the Ki was 0.0398 to 0.316 nM. Also, the IC50 in assay [2] was 25.1 to 158 nM.

Consider `Cc1cccc(-c2nccc(Nc3ccnc(Nc4nc(C(=O)OC[C@@H]5CCCNC5)cs4)n3)n2)n1` [Compound 580, [(3R)-3-piperidyl]methyl 2-[[4-[[2-(6-methyl-2-pyridyl)pyrimidin-4-yl]amino]pyrimidin-2-yl]amino]thiazole-4-carboxylate], for which, in assay [1], the Ki was 0.398 to 3.16 nM. In addition, the IC50 in assay [2] is 200 to 1260 nM.

Take `Cc1cccc(-c2nccc(Nc3ccnc(Nc4ccc(F)c(CN5CCNCC5)c4)n3)n2)n1` [Compound 111, N2-[4-fluoro-3-(piperazin-1-ylmethyl)phenyl]-N4-[2-(6-methyl-2-pyridyl)pyrimidin-4-yl]pyrimidine-2,4-diamine]: in assay [1], the Ki is 0.0398 to 0.316 nM. Further, the IC50 in assay [2] was 25.1 to 158 nM.

Turning to `Cc1cccc(-c2nccc(Nc3ccnc(Nc4ccc(CN5CCNC[C@@H]5CO)cc4)n3)n2)n1` [Compound 132, [(2R)-1-[[4-[[4-[[2-(6-methyl-2-pyridyl)pyrimidin-4-yl]amino]pyrimidin-2-yl]amino]phenyl]methyl]piperazin-2-yl]methanol], in assay [1], the Ki is 0.0398 to 0.316 nM. Moreover, the IC50 in assay [2] was 25.1 to 158 nM.

Turning to `Cc1cccc(-c2nccc(Nc3ccnc(Nc4ccc(S(=O)(=O)N(C)C5CCNCC5)cc4)n3)n2)n1` [Compound 122, N-methyl-4-[[4-[[2-(6-methyl-2-pyridyl)pyrimidin-4-yl]amino]pyrimidin-2-yl]amino]-N-(4-piperidyl)benzenesulfonamide], the Ki in assay [1] is 0.0398 to 0.316 nM. In assay [2], the IC50 was 25.1 to 158 nM.
